# Patent US12679843B2, “Pyrrolopyrimidine amines as complement inhibitors” (BioCryst Pharmaceuticals, Inc., priority 2020, dated 2026)
# Target: Factor D (Homo sapiens, UniProt P00746)
# Test: Factor D esterolytic assay (Z-Lys-SBzl thioester substrate, DTNB, 405 nm)
# Assay type: biochemical
# Settings: substrate Z-Lys-SBzl 1.29 mM, 100 mM HEPES, 500 mM NaCl, pH 7.5, 10% DMSO, tested a minimum of three times
# Outline: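 Human Factor D hydrolysis of Z-Lys-SBzl (1.29 mM) monitored at 405 nm via DTNB thiol detection for 600 s, 690 nm background subtracted. Buffer 100 mM HEPES, 500 mM NaCl, pH 7.5, 10% DMSO; substrate added immediately or after room-temperature preincubation. IC50 from percent inhibition of rate, at least three tests.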
# Chain of Factor D (P00746 26-253): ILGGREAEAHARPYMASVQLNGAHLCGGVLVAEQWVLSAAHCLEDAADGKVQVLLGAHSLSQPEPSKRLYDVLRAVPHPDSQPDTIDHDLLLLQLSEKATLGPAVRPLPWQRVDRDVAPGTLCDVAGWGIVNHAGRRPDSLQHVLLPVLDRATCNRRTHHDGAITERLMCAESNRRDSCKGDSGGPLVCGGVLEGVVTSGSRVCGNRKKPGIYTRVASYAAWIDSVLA
row,Compound,IC50
1,"Nc1ncnc2c1c(-c1ccoc1)cn2CC(=O)N1C[C@H](F)C[C@H]1C(=O)NCc1cccc(Cl)c1F [Compound 143d, (2S,4R)-1-(2-(4-amino-5-(furan-3-yl)-7H-pyrrolo[2,3-d]pyrimidin-7-yl)acetyl)-N-(3-chloro-2-fluorobenzyl)-4-fluoropyrrolidine-2-carboxamide]",100 to 1000 nM
2,"COc1cc2c(cc1Br)c1c(N)ncnc1n2CC(=O)N1[C@H](C(=O)Nc2cccc(Br)n2)C[C@@]2(C)C[C@@H]12 [Compound 375a, (1R,3S,5R)-2-(2-(4-amino-6-bromo-7-methoxy-9H-pyrimido[4,5-b]indol-9-yl)acetyl)-N-(6-bromopyridin-2-yl)-5-methyl-2-azabicyclo[3.1.0]hexane-3-carboxamide]",< 100 nM
3,"Nc1ncnc2c1c1cc(C(F)(F)F)ccc1n2CC(=O)N1[C@@H]2C[C@@H]2C[C@H]1C(=O)Nc1cccc(Br)c1 [Compound 266b, (1R,3S,5R)-2-(2-(4-amino-6-(trifluoromethyl)-9H-pyrimido[4,5-b]indol-9-yl)acetyl)-N-(3-bromophenyl)-2-azabicyclo[3.1.0]hexane-3-carboxamide]",< 100 nM
4,"Cc1cc(C(=O)O)cc2c3c(N)ncnc3n(CC(=O)N3[C@@H]4C[C@@H]4C[C@H]3C(=O)Nc3cccc(Br)n3)c12 [Compound 218a, 4-amino-9-(2-((1R,3S,5R)-3-((6-bromopyridin-2-yl)carbamoyl)-2-azabicyclo[3.1.0]hexan-2-yl)-2-oxoethyl)-8-methyl-9H-pyrimido[4,5-b]indole-6-carboxylic acid]",< 100 nM

# Now from value to compound:
row,IC50,Compound
1,< 100 nM,"Nc1ncnc2c1c1cc(Br)c(F)cc1n2CC(=O)N1[C@@H]2C[C@@H]2C[C@H]1C(=O)Nc1cccc(Br)n1 [Compound 389g, (1R,3S,5R)-2-(2-(4-amino-6-bromo-7-fluoro-9H-pyrimido[4,5-b]indol-9-yl)acetyl)-N-(6-bromopyridin-2-yl)-2-azabicyclo[3.1.0]hexane-3-carboxamide]"
2,< 100 nM,"Cc1ccc(Br)nc1NC(=O)[C@@H]1C[C@@]2(C)C[C@H]2N1C(=O)Cn1c2ccc(C(F)(F)F)cc2c2c(N)ncnc21 [Compound 11f, (1R,3S,5R)-2-(2-(4-amino-6-(trifluoromethyl)-9H-pyrimido[4,5-b]indol-9-yl)acetyl)-N-(6-bromo-3-methylpyridin-2-yl)-5-methyl-2-azabicyclo[3.1.0]hexane-3-carboxamide]"
3,< 100 nM,"C[C@@]12C[C@@H](C(=O)Nc3cccc(Br)n3)N(C(=O)Cn3c4ccncc4c4c(N)ncnc43)[C@@H]1C2 [Compound 181a, (1R,3S,5R)-2-(2-(4-amino-9H-pyrido[3′,4′:4,5]pyrrolo[2,3-d]pyrimidin-9-yl)acetyl)-N-(6-bromopyridin-2-yl)-5-methyl-2-azabicyclo[3.1.0]hexane-3-carboxamide]"
4,< 100 nM,"COc1cccc2c1c1c(N)ncnc1n2CC(=O)N1[C@H](C(=O)Nc2cccc(Br)n2)C[C@@]2(C)C[C@@H]12 [Compound 172a, (1R,3S,5R)-2-(2-(4-amino-5-methoxy-9H-pyrimido[4,5-b]indol-9-yl)acetyl)-N-(6-bromopyridin-2-yl)-5-methyl-2-azabicyclo[3.1.0]hexane-3-carboxamide]"
5,< 100 nM,"Nc1ncnc2c1c1cc(-c3ccncc3)ccc1n2CC(=O)N1[C@@H]2C[C@@H]2C[C@H]1C(=O)Nc1cccc(Br)n1 [Compound 226c, (1R,3S,5R)-2-(2-(4-amino-6-(pyridin-4-yl)-9H-pyrimido[4,5-b]indol-9-yl)acetyl)-N-(6-bromopyridin-2-yl)-2-azabicyclo[3.1.0]hexane-3-carboxamide]"
6,< 100 nM,"Cc1nc(C(F)(F)F)cc2c3c(N)ncnc3n(CC(=O)N3[C@@H]4C[C@@H]4C[C@H]3C(=O)Nc3cccc(Br)n3)c12 [Compound 346g, (1R,3S,5R)-2-(2-(4-amino-8-methyl-6-(trifluoromethyl)-9H-pyrido[4′,3′:4,5]pyrrolo[2,3-d]pyrimidin-9-yl)acetyl)-N-(6-bromopyridin-2-yl)-2-azabicyclo[3.1.0]hexane-3-carboxamide]"
